Laboratory results as given in ChEMBL document CHEMBL3046152, “Synthesis and fungicide activity of 2,3-dihydroimidazo [2,1-b]thiazole-5-carboxamides” (1995).

Assays:
Format in all cases: functional
Parastagonospora nodorum [1] = test: Fungicidal activity against Phaeosphaeria nodorum inoculated in 24 hr compound-treated plant foliage assessed as disease control at 40 ppm measured after 7 days
Oculimacula yallundae [2] = test: Fungicidal activity against Oculimacula yallundae inoculated in 24 hr compound-treated plant foliage assessed as disease control at 40 ppm measured after 7 days
Parastagonospora nodorum [3] = test: Fungicidal activity against Phaeosphaeria nodorum inoculated in 24 hr compound-treated plant foliage assessed as disease control at 200 ppm measured after 7 days
Oculimacula yallundae [4] = test: Fungicidal activity against Oculimacula yallundae inoculated in 24 hr compound-treated plant foliage assessed as disease control at 200 ppm measured after 7 days
Parastagonospora nodorum [5] = test: Fungicidal activity against Phaeosphaeria nodorum inoculated in 24 hr compound-treated plant foliage assessed as disease control at 20 ppm measured after 7 days
Oculimacula yallundae [6] = test: Fungicidal activity against Oculimacula yallundae inoculated in 24 hr compound-treated plant foliage assessed as disease control at 20 ppm measured after 7 days

Structure (SMILES) | Activity (Parastagonospora nodorum [1]) | Activity (Oculimacula yallundae [2]) | Activity (Parastagonospora nodorum [3]) | Activity (Oculimacula yallundae [4]) | other results
O=C(Nc1c(Cl)cccc1Cl)c1c(-c2ccccc2)nc2n1CCS2(=O)=O | 23% | 9% |  |  | 
O=C(Nc1c(Cl)cccc1Cl)c1c(Cl)nc2n1CCS2(=O)=O | 0% | 39% |  |  | 
O=C(c1c(Cl)nc2n1CCS2(=O)=O)N1CCCCC1 |  |  | 23% | 0% | 
O=C(c1c(Cl)nc2n1CCS2(=O)=O)N1CCOCC1 | 23% | 0% |  |  | 
CN(C(=O)c1c(Cl)nc2n1CCS2(=O)=O)c1ccccc1 |  |  | 0% | 39% | 
O=C(Nc1ccccn1)c1c(Cl)nc2n1CCS2(=O)=O |  |  | 0% | 100% | 
CCNC(=O)c1c(Cl)nc2n1CCS2(=O)=O | 23% | 39% |  |  | 
Cc1nc2n(c1C(=O)Nc1c(Cl)cccc1Cl)CCS2(=O)=O | 23% | 0% |  |  | 
Cc1nc2n(c1C(=O)N1CCCCC1)CCS2(=O)=O |  |  | 23% | 0% | 
Cc1nc2n(c1C(=O)Nc1ccccn1)CCS2(=O)=O |  |  | 0% | 100% | 
Cc1nc2n(c1C(=O)Nc1ccccc1)CCS2(=O)=O |  |  | 23% | 54% | 
C[Si](Cn1cncn1)(c1ccc(F)cc1)c1ccc(F)cc1 [FLUSILAZOLE] |  |  |  |  | Activity (Parastagonospora nodorum [5]): 99%; Activity (Oculimacula yallundae [6]): 98%
